Key:
MDA-MB-231 = experiment: Antiproliferative activity, MTT assay; format: cell-based, human; settings: Homo sapiens, MDA-MB-231; MTT, 72 h; standard deviations within 50%
Method: (§1) Human breast cancer MCF7, MDA-MB-231, SkBr-3 (purchased from the ATCC collection), human keratinocytes HaCaT, murine fibroblasts L929 and macrophages J774 cells (Collection of Shemyakin-Ovchinnikov Institute of Bioorganic Chemistry RAS) were cultured in standard DMEM or RPMI-1640 medium (ThermoScientific, Waltham, MA, USA) supplemented with 10% fetal bovine serum (FBS, Cytiva, Marlborough, MA, USA) at 37 °C, 5 % CO2 and 80–85% humidity (NuAir CO2 incubator). The cell growth was evaluated by MTT (3-[4,5-dimethylthiazol-2-yl]-2,5-diphenyltetrazolium bromide) test. Cells were seeded at a density of 5 × 10^3 cells per well in 96-well flat-bottomed plates (TPP). The compounds were dissolved in DMSO (AppliChem) to 10 mM before the experiments, and then the resulting solutions were diluted by the medium to the required concentrations. Solutions of the tested compounds with different concentrations in 100 μL of the medium were added and the cells were grown for 72 h. MTT (10 μL/well, 5 mg/mL) was added for the final 3 h. The formazan purple crystals were dissolved in DMSO (100 μL per well). The absorbance of solutions was measured at 540 nm with a MultiScan reader (ThermoFisher). Results were analyzed by Excel package (Microsoft). The inhibition of proliferation (inhibitory index) was calculated as [1–(ODexperiment/ODcontrol)], where OD was MTT optical density. IC50 (Table 1) was determined as the concentration giving 50% of inhibition in the comparison with it […].

MCF7 = experiment: Antiproliferative activity, MTT assay; format: cell-based; settings: Homo sapiens, 72 h, standard deviations within 50%
Method: as §1

macrophages J774 = experiment: Antiproliferative activity, MTT assay; format: cell-based, murine; settings: Mus musculus, 72 h, standard deviations within 50%
Method: as §1

fibroblasts L929 = experiment: Antiproliferative activity, MTT assay; format: cell-based, murine; settings: Mus musculus, 72 h, standard deviations within 50%
Method: as §1

[1] = target: T1, recombinant PI3K (p110α/p85α) (Homo sapiens, UniProt P42336); experiment: PI3K inhibition assay (HTRF); format: biochemical; settings: FRET/HTRF detection; approximate; read-out: IC50 PI3Kα
T1 construct: purchased Millipore 14-602
T1 sequence (P42336 whole entry): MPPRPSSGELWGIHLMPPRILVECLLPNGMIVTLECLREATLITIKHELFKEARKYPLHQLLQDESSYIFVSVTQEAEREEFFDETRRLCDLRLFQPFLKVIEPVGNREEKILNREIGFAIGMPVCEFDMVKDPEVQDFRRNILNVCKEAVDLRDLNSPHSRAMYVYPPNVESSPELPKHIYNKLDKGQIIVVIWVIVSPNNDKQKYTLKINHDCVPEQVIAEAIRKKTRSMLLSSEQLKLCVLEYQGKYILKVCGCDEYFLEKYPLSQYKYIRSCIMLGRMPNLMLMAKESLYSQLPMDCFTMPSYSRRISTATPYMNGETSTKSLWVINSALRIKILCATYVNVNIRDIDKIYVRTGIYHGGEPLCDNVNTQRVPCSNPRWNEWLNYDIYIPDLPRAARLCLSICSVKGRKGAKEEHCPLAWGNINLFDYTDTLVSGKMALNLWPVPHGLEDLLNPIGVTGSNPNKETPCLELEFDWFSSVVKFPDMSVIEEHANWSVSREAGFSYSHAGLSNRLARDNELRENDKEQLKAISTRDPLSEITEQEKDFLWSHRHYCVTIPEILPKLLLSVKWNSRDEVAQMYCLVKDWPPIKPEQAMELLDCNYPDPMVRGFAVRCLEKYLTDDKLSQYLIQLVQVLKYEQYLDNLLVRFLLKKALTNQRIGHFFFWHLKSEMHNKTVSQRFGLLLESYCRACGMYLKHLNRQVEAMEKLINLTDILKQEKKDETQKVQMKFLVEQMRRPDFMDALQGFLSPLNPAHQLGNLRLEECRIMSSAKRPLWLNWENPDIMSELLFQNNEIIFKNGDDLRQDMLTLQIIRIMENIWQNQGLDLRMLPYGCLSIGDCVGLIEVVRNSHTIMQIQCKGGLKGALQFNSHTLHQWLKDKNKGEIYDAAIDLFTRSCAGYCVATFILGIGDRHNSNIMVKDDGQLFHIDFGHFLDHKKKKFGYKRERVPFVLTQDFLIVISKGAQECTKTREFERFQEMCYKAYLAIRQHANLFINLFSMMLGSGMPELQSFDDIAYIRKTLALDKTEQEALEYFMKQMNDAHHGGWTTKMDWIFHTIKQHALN
T1 sequence (P27986 whole entry partner): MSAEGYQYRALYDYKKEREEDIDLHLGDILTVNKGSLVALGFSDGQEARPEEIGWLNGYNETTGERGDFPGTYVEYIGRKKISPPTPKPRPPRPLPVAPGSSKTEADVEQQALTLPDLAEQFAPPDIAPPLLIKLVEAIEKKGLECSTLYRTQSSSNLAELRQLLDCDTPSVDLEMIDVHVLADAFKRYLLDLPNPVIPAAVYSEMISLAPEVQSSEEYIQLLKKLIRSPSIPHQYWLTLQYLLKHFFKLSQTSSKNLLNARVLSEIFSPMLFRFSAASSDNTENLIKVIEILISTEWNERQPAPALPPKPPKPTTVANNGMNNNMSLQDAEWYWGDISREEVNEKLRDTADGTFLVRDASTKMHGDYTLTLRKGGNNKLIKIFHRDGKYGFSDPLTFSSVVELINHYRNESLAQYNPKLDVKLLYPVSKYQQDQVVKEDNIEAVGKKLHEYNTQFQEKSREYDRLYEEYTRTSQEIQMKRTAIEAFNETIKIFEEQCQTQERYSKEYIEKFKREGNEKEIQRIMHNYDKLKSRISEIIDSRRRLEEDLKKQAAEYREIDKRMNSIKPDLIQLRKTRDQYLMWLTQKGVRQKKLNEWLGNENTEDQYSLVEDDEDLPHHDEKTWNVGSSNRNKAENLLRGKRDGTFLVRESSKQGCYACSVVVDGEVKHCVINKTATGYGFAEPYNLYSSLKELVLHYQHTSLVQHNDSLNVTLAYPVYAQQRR
Method: The PI 3-Kinase (Class I) HTRF Assay Kit (Cat# 33-016 from Millipore) was used to determine the activity of recombinant PI3K (p110α/p85α) human (Cat# 14-602 from Millipore). The kit was supplemented with ATP (Cat# A26209 from Sigma-Aldrich, St. Louis, MI, USA), DL-dithiothreitol (Cat# S-[…]-1 from Sigma-Aldrich), and Wortmannin inhibitor (Cat# 12-338 from Millipore, Burlington, MA, USA). The latter was used at 0.1 μM concentration. For measurements, a Victor ×5 plate reader (PerkinElmer, 2030, Waltham, MA, USA) was used in TRF mode with excitation at 340 nm. Fluorescence emission was recorded at 613 and 670 nm in a 384-well plate (Cat# S-CLS3658 from Sigma-Aldrich) at a time interval of 150-350 μs. The enzymatic reaction and the determination of its products were carried out according to the recommendations of the reagent kit manufacturer (Millipore) in two wells for each sample. In calculations, readings in parallel wells were averaged. The calculations were made according to the recommendations of the equipment manufacturer.

SkBr-3 cells = experiment: Cell cycle analysis (PI-stained DNA, flow cytometry); format: cell-based, human
Method: The cell cycle was analyzed using PI-stained DNA. Cells from the compounds 7 treated cultures were collected at 24, 48, and 72 h, trypsinized, washed in ice-cold PBS, fixed by the addition of 70% ethanol and left for 2 h at −20 °C. Thereafter, the cells were washed twice in PBS, stained with 50 μg/mL of propidium iodide (Sigma, Merck KGaA, Darmstadt, Germany) in PBS, treated with 10 µg/mL of RNAse and analyzed by flow cytometry using FACScan device (BD, USA). A total of 2000 events were collected. The results were analyzed using FlowJo 10 software (BD, Franklin Lakes, NJ, USA).

keratinocytes HaCaT = experiment: Antiproliferative activity, MTT assay; format: cell-based; settings: Homo sapiens, 72 h, standard deviations within 50%
Method: as §1

MCF7 breast cancer cells = test system: MCF7 breast cancer cells; parameters: method as in PMID 32825760; settings: read-out: Concentration causing 50% suppression of MCF7 cell growth; cited from earlier work
[2] = test system: PI3K/Akt/mTOR signaling pathway in MCF7 cells; experiment: Immunoblotting of PI3K/Akt/mTOR phosphorylation; format: cell-based, human; settings: 500 nM
Method: MCF7 cells were seeded onto 100 mm dishes (Corning) and cultivated for 24 h. Compound 7c was added at different concentrations while the reference compound wortmannin (Selleckchem, Houston, TX, USA) was used at 500 nM. The cells were harvested after 72 h of growth with the compounds. To prepare cell extracts, MCF7 cells were twice washed in phosphate buffer and incubated for 10 min on ice in the modified lysis buffer containing 50 mM Tris-HCl, pH 7.5, 0.5% Igepal CA-630, 150 mM NaCl, 1 mM EDTA, 1 mM DTT, 1 mM PMSF, 0.1 mM sodium orthovanadate and aprotinin, leupeptin, pepstatin (1 µg/mL each). The protein content was determined by the Bradford method. Cell lysates were separated in 10% SDS-PAGE under reducing conditions, transferred to a nitrocellulose membrane (GE HealthCare, Chicago, IL, USA), and processed according to a standard protocol. To prevent nonspecific absorption, the membranes were treated with 5% nonfat milk solution in TBS buffer (20 mM Tris, 500 mM NaCl, pH 7.5) with 0.1% Tween-20 and then incubated with primary antibodies (Cell Signaling Technology, Danvers, MA, USA) overnight at 4 °C. […] Signals were detected using the ECL reagent using the ImageQuant LAS4000 system (GE HealthCare, Chicago, IL, USA).
The signals of phospho-proteins to total ones were calculated using the ImageJ program from inverted images of the bands.

melting point	IC50 (MDA-MB-231)	IC50 (MCF7)	IC50 [1]	Compound	IC50 (macrophages J774)	IC50 (fibroblasts L929)	Concentration above which all cells died (SkBr-3 cells)	Concentration below which no changes in the cell cycle were found (SkBr-3 cells)	IC50 (keratinocytes HaCaT)	IC50 (MCF7 breast cancer cells)	Effect on PI3K/Akt/mTOR signaling pathway [2]
	14 µM	4.9 µM		O=C(Nc1ccc(F)cc1)Nc1ccc(-c2ccc3c(N4CCOCC4)nc(N4CCOCC4)nc3c2)cc1 [Compound 7g, 1-(4-(2,4-Dimorpholinoquinazolin-7-yl)phenyl)-3-(4-fluorophenyl)urea]	6 µM	25 µM			25000 nM		
210 to 212 °C	14 µM	13 µM		O=C(Nc1ccc(-c2ccc3c(N4CCOCC4)nc(N4CCOCC4)nc3c2)cc1)Nc1ccccn1 [Compound 7h, 1-(4-(2,4-Dimorpholinoquinazolin-7-yl)phenyl)-3-(pyridin-2-yl)urea]	6 µM	12 µM			3000 nM		
228 to 230 °C	11 µM	6.1 µM		O=C(Nc1ccc(-c2ccc3c(N4CCOCC4)nc(N4CCOCC4)nc3c2)cc1)Nc1cccc2ccccc12 [Compound 7i, 1-(4-(2,4-Dimorpholinoquinazolin-7-yl)phenyl)-3-(naphthalen-1-yl)urea]	6 µM	6 µM			6000 nM		
	4.1 µM	3.8 µM		COC(=O)c1ccc(NC(=O)Nc2ccc(-c3ccc4c(N5CCOCC5)nc(N5CCOCC5)nc4c3)cc2)cc1 [Compound 7j, Methyl 4-(3-(4-(2,4-Dimorpholinoquinazolin-7-yl)phenyl)ureido)benzoate]	0.8 µM	3 µM	higher than 10 μM	below 1 μM	3000 nM		
109 to 111 °C	17 µM	11 µM		CCOC(=O)N1CCN(C(=O)Nc2ccc(-c3ccc4c(N5CCOCC5)nc(N5CCOCC5)nc4c3)cc2)CC1 [Compound 7k, Ethyl 4-((4-(2,4-Dimorpholinoquinazolin-7-yl)phenyl)carbamoyl)piperazine-1-carboxylate]	3 µM	25 µM			6000 nM		
168 to 170 °C	> 50 µM	> 50 µM		C#CCNC(=O)Nc1ccc(-c2ccc3c(N4CCOCC4)nc(N4CCOCC4)nc3c2)cc1 [Compound 7l, 1-(4-(2,4-Dimorpholinoquinazolin-7-yl)phenyl)-3-(prop-2-yn-1-yl)urea]	6 µM	> 50 µM			3000 nM		

Second part, the molecule before the results:

Compound	melting point	IC50 (MDA-MB-231)	IC50 (MCF7)	IC50 [1]	IC50 (macrophages J774)	IC50 (fibroblasts L929)	Concentration above which all cells died (SkBr-3 cells)	Concentration below which no changes in the cell cycle were found (SkBr-3 cells)	IC50 (keratinocytes HaCaT)	IC50 (MCF7 breast cancer cells)	Effect on PI3K/Akt/mTOR signaling pathway [2]
Nc1ccc(-c2ccc3c(N4CCOCC4)nc(N4CCOCC4)nc3c2)cc1 [Compound 6, 4-(2,4-Dimorpholinoquinazolin-7-yl)aniline]	191 to 193 °C										
O=C(NCc1ccco1)Nc1ccc(-c2ccc3c(N4CCOCC4)nc(N4CCOCC4)nc3c2)cc1 [Compound 7a, 1-(4-(2,4-Dimorpholinoquinazolin-7-yl)phenyl)-3-(furan-2-ylmethyl)urea]	184 to 186 °C	6.7 µM	6.6 µM								
COc1ccc(CNC(=O)Nc2ccc(-c3ccc4c(N5CCOCC5)nc(N5CCOCC5)nc4c3)cc2)cc1 [Compound 7b, 1-(4-(2,4-Dimorpholinoquinazolin-7-yl)phenyl)-3-(4-methoxybenzyl)urea]		1.7 µM	1.1 µM	~50 µM	1.6 µM	12 µM	higher than 10 μM	below 1 μM	800 nM		
O=C(Nc1ccc(-c2ccc3c(N4CCOCC4)nc(N4CCOCC4)nc3c2)cc1)NC1CC1 [Compound 7d, 1-Cyclopropyl-3-(4-(2,4-dimorpholinoquinazolin-7-yl)phenyl)urea]	83 to 85 °C	10.5 µM	5.2 µM								
N[C@@H](CCCCNC(=O)Nc1ccc(-c2ccc3c(N4CCOCC4)nc(N4CCOCC4)nc3c2)cc1)C(=O)O [Compound 7e, N6-((4-(2,4-Dimorpholinoquinazolin-7-yl)phenyl)carbamoyl)lysine]	89 to 91 °C	24 µM	9.5 µM		12 µM	12 µM			12000 nM		
O=C(Nc1ccc(-c2ccc3c(N4CCOCC4)nc(N4CCOCC4)nc3c2)cc1)Nc1ccc([N+](=O)[O-])cc1 [Compound 7f, 1-(4-(2,4-Dimorpholinoquinazolin-7-yl)phenyl)-3-(4-nitrophenyl)urea]	240 to 242 °C	8.8 µM	6.5 µM		6 µM	12 µM			3000 nM		
CN(C)C(=N)N=C(N)N [MF, metformin]										5.8 mM	
COC[C@H]1OC(=O)c2coc3c2[C@@]1(C)C1=C(C3=O)[C@@H]2CCC(=O)[C@@]2(C)C[C@H]1OC(C)=O [wortmannin, reference compound]											neither affects PI3K/Akt/mTOR signaling pathway even at 500 nM
